According to US5487898A, “Compositions and method for the sublingual or buccal administration therapeutic agents” (Abbott Laboratories, priority 1994, dated 1996):
Read-outs that look alike come from different tables or passages of the source.

Experiments:
[1] = dog, in vivo
Procedure: The dose of administered leuprolide acetate mid the measurement of plasma leuprolide concentration are the same as described for FIG. 1.
In this and subsequent Examples, bioavailability is calculated and expressed either in terms of Area Under Curve (AUC) or as percent (%) bioavailability. AUC is determined by calculating the area under the curve of plots of time (X-axis) versus plasma concentration (Y-axis) of the administered polypeptide. Typically, AUC is determined over a 6 (0-6) or 8 (0-8) hour period. Percent bioavailability is calculated as the ratio [formula] Increases in AUC and/or bioavailability indicate increased bioavailability of the administered polypeptide.
In one such composition the pH value was adjusted to a value of about 7.0 with NaOH.
The liquid compositions were sublingually administered to dogs (0.1 ml/10 kg body wt) and the plasma levels of leuprolide measured over 8 hours.

[2] = dog, in vivo; remark: listed apart in the source

CCNC(=O)[C@@H]1CCCN1C(=O)[C@H](CCCNC(=N)N)NC(=O)[C@H](CC(C)C)NC(=O)[C@@H](CC(C)C)NC(=O)[C@H](Cc1ccc(O)cc1)NC(=O)[C@H](CO)NC(=O)[C@H](Cc1c[nH]c2ccccc12)NC(=O)[C@H](Cc1c[nH]cn1)NC(=O)[C@@H]1CCC(=O)N1 [leuprolide acetate, 5-oxo-L-prolyl-L-histidyl-L-tryptophanyl-L-seryl-L-tyrosyl-D-leueyl-L-leueyl-L-arginyl-L-prolyl-ethylamide]
bioavailability vs benzoic acid concentration (FIG. 3) [1]: directly proportional to benzoic acid concentration
Percent Bioavailability ([1]; pH 5.6): 24.5%
Percent Bioavailability ([1]; pH 7): 2.7%
bioavailability, AUC 0-8 hours vs peppermint oil concentration (FIG. 4) [2]: increases the bioavailability
